Source: ChEMBL document CHEMBL1201862, “PubChem BioAssay data set” (2004)
The source made the active and inactive calls.

Tests used:
[1] = viability of HCT116 lacking mutant beta-catenin – cell-based, human colon tumor, dose response (AID 1045); assay type: functional;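 further: HCT116 colon tumor cells with beta catenin knocked out; cells exposed to compound for 60 hours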
[2] = viability loss in THP-1 monocytes – THP-1 cells, cytotoxicity control for Vif-APOBEC3G degradation inhibitor project, dose response (AID 1117359); assay type: functional; settings: THP-1
[3] = target: Glutathione-S-transferase (Schistosoma japonicum, UniProt Q26513); experiment: GST-antibody interaction or FRET quenching – biochemical, TR-FRET, artefact control for Vif-APOBEC3G degradation inhibitor project, dose response (AID 1117362); assay type: functional
Chain of Glutathione-S-transferase (Q26513 whole entry): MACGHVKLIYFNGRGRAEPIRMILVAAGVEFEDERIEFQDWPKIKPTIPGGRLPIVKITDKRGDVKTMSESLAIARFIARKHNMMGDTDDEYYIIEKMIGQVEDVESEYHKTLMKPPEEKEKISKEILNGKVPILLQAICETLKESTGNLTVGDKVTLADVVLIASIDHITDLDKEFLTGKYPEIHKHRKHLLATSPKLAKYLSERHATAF

[4] = viability loss in HeLa cells – cytotoxicity control for MgcRacGAP inhibitor project, dose response (AID 624300); assay type: functional
Nonstructural protein 1 = Nonstructural protein 1 (Influenza A virus, UniProt Q194T2); assay type: functional, Influenza A virus (A/California/07/2009(H1N1))
Chain of Nonstructural protein 1 (Q194T2 whole entry): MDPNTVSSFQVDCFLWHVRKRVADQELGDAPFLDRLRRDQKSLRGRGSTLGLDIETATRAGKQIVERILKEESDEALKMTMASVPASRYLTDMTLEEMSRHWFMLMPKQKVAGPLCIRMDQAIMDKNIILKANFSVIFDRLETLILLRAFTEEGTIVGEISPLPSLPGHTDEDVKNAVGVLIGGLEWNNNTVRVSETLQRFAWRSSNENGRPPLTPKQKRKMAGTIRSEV

[5] = target: T1, Rac GTPase-activating protein 1 (Homo sapiens, UniProt Q9H0H5); experiment: blockers of MgcRacGAP-driven Rac1 GTP hydrolysis – biochemical, ADP Hunter fluorescence, primary and confirmatory, confirmation (AID 624330); assay type: functional
T1 sequence (Q9H0H5 whole entry): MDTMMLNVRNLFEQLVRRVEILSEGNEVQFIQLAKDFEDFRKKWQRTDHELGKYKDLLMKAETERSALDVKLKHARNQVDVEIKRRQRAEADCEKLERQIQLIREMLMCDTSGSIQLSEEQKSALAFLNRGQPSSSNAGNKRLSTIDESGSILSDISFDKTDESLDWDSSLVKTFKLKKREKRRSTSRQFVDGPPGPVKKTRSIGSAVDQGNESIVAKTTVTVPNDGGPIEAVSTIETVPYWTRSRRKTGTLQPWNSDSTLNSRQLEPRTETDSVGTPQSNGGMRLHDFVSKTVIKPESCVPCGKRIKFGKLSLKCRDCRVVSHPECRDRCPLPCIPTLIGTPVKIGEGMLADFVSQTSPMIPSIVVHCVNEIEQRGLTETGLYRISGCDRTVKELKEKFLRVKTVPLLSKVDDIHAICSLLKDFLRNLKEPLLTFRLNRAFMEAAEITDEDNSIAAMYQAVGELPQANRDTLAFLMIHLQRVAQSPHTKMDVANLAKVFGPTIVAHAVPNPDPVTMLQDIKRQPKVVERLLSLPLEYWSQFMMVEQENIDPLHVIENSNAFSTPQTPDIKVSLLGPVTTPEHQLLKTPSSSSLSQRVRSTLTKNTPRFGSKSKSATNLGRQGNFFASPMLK

[6] = mitochondrial function rescue without frataxin homolog – Friedreich's ataxia, plus single-dose screen, dose response (AID 1465); assay type: functional;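 further: yeast depleted of Yfh1p frataxin homolog grown on glycerol needing respiration; WST-1 tetrazolium dye reduction as measure of cellular dehydrogenase metabolic activity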
[7] = viability of PTEN-deleted HCT116 cells – cell-based, HCT116 PTEN knockout, dose response (AID 1047); assay type: functional;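 further: HCT116 colon tumor cells with PTEN knocked out; cells exposed to compound for 60 hours before readout; potency for loss of cell viability measured by luminescence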
[8] = P. falciparum Dd2 growth inhibitors, dose response, SYBR Green, cherry-picked samples (AID 1159567); assay type: functional, cell-based
[9] = Plasmodium falciparum Dd2 Sybr green parasite growth Measured in Cell-Based and Microorganism Combination System Using Plate Reader - 2153-01_Inhibitor_Dose_DryPowder_Activity_Set3.; assay type: functional
[10] = toxicity to human hepatoma HepG2 cells – cell-based, cherry-picked samples, cytotoxicity control, dose response (AID 1159577); assay type: functional
[11] = toxicity to human HepG2 hepatoma cells – cell-based, plate reader, dry powder samples, cytotoxicity control, dose response (AID 1159569); assay type: functional;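 further: inhibitor potency with signal falling toward the positive control level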
[12] = Dd2 malaria parasite growth inhibition potency – SYBR Green, dry powder samples, dose response (AID 1159566); assay type: functional, cell-based;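 further: potency for growth inhibition with lower SYBR green DNA signal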
[13] = growth inhibition of PfATP4-mutant resistant parasites – NITD609-resistant line, SYBR Green, dry powder, dose response (AID 1159571); assay type: functional, cell-based;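 further: parasites synchronized at ring stage by sorbitol before testing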
[14] = growth inhibition of yeast DHODH-expressing 3D7 parasites – SYBR Green, dry powder samples, dose response (AID 1159570); assay type: functional, cell-based;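 further: parasite growth measured after 72 hours of compound exposure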
[15] = target: RNA-editing ligase 1, mitochondrial (Trypanosoma brucei brucei, UniProt P86926); experiment: inhibition of trypanosome RNA editing ligase – biochemical, fluorescence, Trypanosoma brucei, dose response (AID 1117295); assay type: functional
Chain of RNA-editing ligase 1, mitochondrial (P86926 whole entry): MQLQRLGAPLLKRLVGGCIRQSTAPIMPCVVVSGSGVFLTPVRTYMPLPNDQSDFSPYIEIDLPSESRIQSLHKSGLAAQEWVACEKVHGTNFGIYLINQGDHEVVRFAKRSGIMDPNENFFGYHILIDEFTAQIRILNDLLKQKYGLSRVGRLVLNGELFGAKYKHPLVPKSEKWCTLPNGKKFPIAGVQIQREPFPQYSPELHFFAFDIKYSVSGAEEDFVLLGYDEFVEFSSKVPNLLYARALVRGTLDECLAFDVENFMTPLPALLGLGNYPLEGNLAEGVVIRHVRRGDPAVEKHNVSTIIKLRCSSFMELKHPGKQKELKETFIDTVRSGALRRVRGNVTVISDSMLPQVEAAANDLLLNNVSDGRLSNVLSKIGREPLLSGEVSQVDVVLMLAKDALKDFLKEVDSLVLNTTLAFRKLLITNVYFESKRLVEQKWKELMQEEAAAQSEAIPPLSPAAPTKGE

CN(C)c1ccc(/N=C/C=C2/N(C)c3ccccc3C2(C)C)cc1
active: EC50 [1] 39 µM | CC50 [2] 17.5 µM | IC50 [3] 44.9 µM | CC50 [4] 100 µM | IC50 (Nonstructural protein 1) 16.1 µM | IC50 [5] 20.6 µM | EC50 [6] > 100 µM | EC50 [7] 39 µM

N#C[C@@H]1[C@H](c2ccc(C3=CCCCC3)cc2)[C@@H](CO)N1C(=O)NC1CCCC1
inactive: AC50 [10] > 39 µM
active: AC50 [8] 0.42 µM | AC50 [9] 0.399 µM | AC50 [11] 62.5 µM | AC50 [12] 0.409 µM | AC50 [13] 0.549 µM | AC50 [14] 9.32 µM

COC(=O)C1=C(C)N(Cc2ccccc2C(F)(F)F)C(NCc2ccc(C(F)(F)F)cc2)=NC1c1ccccc1 (stereo unspecified)
inactive: IC50 [15] > 96.6 µM
